Like-named read-outs stand apart in the source and are kept apart here.
Tests used:
[1] = target: T1, Drosophila OR10a (Drosophila melanogaster, UniProt Q9VYZ1); test: Calcium ion fluorescence (GCaMP6) assay, OR10a stable HEK293 cell line; type: cell-based
T1 construct: expressed in transfected cells
T1 sequence (Q9VYZ1 1-406): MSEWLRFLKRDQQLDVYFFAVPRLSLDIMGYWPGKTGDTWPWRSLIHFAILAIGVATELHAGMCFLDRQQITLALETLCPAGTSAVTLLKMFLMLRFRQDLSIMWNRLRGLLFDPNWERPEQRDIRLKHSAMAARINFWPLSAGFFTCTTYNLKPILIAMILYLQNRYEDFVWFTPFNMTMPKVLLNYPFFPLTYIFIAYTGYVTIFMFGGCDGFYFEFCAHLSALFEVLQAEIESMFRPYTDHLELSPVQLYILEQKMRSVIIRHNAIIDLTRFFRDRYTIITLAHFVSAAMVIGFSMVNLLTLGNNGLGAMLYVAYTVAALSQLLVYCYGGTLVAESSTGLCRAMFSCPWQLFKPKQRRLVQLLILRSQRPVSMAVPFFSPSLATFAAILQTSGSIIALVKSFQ
T1 sequence (Q9VNB5 1-486 partner): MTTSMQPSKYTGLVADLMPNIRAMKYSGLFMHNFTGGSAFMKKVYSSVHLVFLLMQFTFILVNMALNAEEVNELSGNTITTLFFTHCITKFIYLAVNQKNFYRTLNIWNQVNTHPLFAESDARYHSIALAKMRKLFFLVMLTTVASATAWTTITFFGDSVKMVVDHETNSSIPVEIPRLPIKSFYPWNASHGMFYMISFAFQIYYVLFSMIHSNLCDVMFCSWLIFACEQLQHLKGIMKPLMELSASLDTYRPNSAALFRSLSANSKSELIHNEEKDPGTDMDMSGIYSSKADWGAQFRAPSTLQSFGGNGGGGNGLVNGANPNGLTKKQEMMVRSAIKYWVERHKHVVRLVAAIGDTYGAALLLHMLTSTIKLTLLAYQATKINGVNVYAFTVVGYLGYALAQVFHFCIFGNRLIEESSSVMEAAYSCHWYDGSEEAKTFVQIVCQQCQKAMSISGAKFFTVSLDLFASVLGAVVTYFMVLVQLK
Procedure, shortened: (§1)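 Responses are VUAA1-normalized ΔF: each VOC-evoked calcium signal, (FMAX−F0)/F0 over 30 s after injection, divided by the same line's mean 50 µM VUAA1 response. Cells were doxycycline-induced HEK293 with GCaMP6 and the cognate Drosophila OR, in HEPES buffer pH 7.3; ligands tested 0.01–100 μM.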

[2] = target: T2, Drosophila OR13a (Drosophila melanogaster, UniProt Q9VXL0); test: Calcium ion fluorescence (GCaMP6) assay, OR13a stable HEK293 cell line; type: cell-based; details: for DF norm AVERAGE OR13a: normalized fluorescence change, values below 0.05 threshold given as 0
T2 construct: expressed in transfected cells
T2 sequence (Q9VXL0 1-418): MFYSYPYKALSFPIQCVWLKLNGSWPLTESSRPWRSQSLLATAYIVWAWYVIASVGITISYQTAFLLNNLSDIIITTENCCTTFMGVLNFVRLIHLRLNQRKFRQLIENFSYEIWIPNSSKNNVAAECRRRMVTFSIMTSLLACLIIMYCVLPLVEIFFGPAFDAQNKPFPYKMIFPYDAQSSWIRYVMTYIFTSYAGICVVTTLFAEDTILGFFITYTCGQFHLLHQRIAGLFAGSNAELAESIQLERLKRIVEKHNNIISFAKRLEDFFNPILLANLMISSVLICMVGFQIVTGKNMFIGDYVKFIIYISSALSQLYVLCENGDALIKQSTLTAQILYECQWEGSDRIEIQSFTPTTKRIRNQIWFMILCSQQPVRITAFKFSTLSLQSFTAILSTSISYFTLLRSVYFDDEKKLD
T2 sequence (Q9VNB5 1-486 partner): T1 sequence (Q9VNB5 1-486 partner)
Procedure, shortened: as §1

[3] = 1 μM VOC, 50 μM VUAA1 = 1, responses not exceeding 0.05 considered 0
[4] = 10 μM VOC, 50 μM VUAA1 = 1, responses not exceeding 0.05 considered 0
[5] = 100 μM VOC, 50 μM VUAA1 = 1, responses not exceeding 0.05 considered 0

## CCCCCC(=O)CC [3-octanone]
[1]; HEK293, 1 μM VOC, 50 μM VUAA1 = 1, responses not exceeding 0.05 considered 0, read-out: OR10a Average response (VUAA1-normalized)
  activation at 1 µM: 2%
[1]; HEK293, 10 μM VOC, 50 μM VUAA1 = 1, responses not exceeding 0.05 considered 0, read-out: OR10a Average response (VUAA1-normalized)
  activation at 10 µM: 10%
[1]; HEK293, 100 μM VOC, 50 μM VUAA1 = 1, responses not exceeding 0.05 considered 0, read-out: OR10a Average response (VUAA1-normalized)
  activation at 100 µM: 2.65%
[1]; HEK293, read-out: OR10a response (VUAA1-normalized response), VOC concentration 1 μM
  activation at 1 µM: 0%
[1]; HEK293, read-out: OR10a response (VUAA1-normalized response), VOC concentration 10 μM
  activation at 10 µM: 10%
[1]; HEK293, read-out: OR10a response (VUAA1-normalized response), VOC concentration 100 μM
  activation at 100 µM: 0%
[2]; HEK293, read-out: OR13a Average response (VUAA1-normalized), 1 μM VOC, 50 μM VUAA1 = 1, responses not exceeding 0.05 considered 0
  activation at 1 µM: 0%
[2]; HEK293, read-out: OR13a Average response (VUAA1-normalized), 10 μM VOC, 50 μM VUAA1 = 1, responses not exceeding 0.05 considered 0
  activation at 10 µM: 0%
[2]; HEK293, read-out: OR13a Average response (VUAA1-normalized), 100 μM VOC, 50 μM VUAA1 = 1, responses not exceeding 0.05 considered 0
  activation at 100 µM: 2.55%
[2]; HEK293, read-out: OR13a response (VUAA1-normalized response), VOC concentration 1 μM
  activation at 1 µM: 0%
[2]; HEK293, read-out: OR13a response (VUAA1-normalized response), VOC concentration 10 μM
  activation at 10 µM: 0%
[2]; HEK293, read-out: OR13a response (VUAA1-normalized response), VOC concentration 100 μM
  activation at 100 µM: 0%
[2]; concentration 1
  DF norm AVERAGE OR13a: 0
[2]; concentration 10
  DF norm AVERAGE OR13a: 0
[2]; concentration 100
  DF norm AVERAGE OR13a: 0

## C=C(C)[C@H]1CC=C(C)CC1 [(R)-(+)-limonene]
[1]; [3]
  OR10a Average response (VUAA1-normalized): 0.00
[1]; [4]
  OR10a Average response (VUAA1-normalized): 0.12
[1]; [5]
  OR10a Average response (VUAA1-normalized): 0.0152
[1]; VOC concentration 1 μM
  OR10a response (VUAA1-normalized response): 0.00
[1]; VOC concentration 10 μM
  OR10a response (VUAA1-normalized response): 0.12
[1]; VOC concentration 100 μM
  OR10a response (VUAA1-normalized response): 0.00
[2]; [3]
  OR13a Average response (VUAA1-normalized): 0.00
[2]; [4]
  OR13a Average response (VUAA1-normalized): 0.0429
[2]; [5]
  OR13a Average response (VUAA1-normalized): 0.0285
[2]; VOC concentration 1 μM
  OR13a response (VUAA1-normalized response): 0.00
[2]; VOC concentration 10 μM
  OR13a response (VUAA1-normalized response): 0.00
[2]; VOC concentration 100 μM
  OR13a response (VUAA1-normalized response): 0.00
[2]; concentration 1
  DF norm AVERAGE OR13a: 0
[2]; concentration 10
  DF norm AVERAGE OR13a: 0
[2]; concentration 100
  DF norm AVERAGE OR13a: 0
